The values below come from US20230257354A1, “NOVEL HETEROCYCLIC COMPOUNDS” (Hoffmann-La Roche Inc., priority 2020, published 2023).

Each structure is given as a SMILES string. Structures can show the parent of a compound that is named as a salt.

The test has as its system Acinetobacter baumannii ATCC17978. The experiment in a line: Antimicrobial susceptibility testing, 90% growth inhibitory concentration (IC90) determination, ATCC17978. In kind it is cell-based. The conditions noted are these: Iso-Sensitest broth, OD 600 nm over 16 h, 35±2° C., read-out: ATCC 17978 IC90. Put shortly:
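Serial twofold dilutions (e.g. 50 to 0.097 μM final) in Iso-Sensitest broth, inoculum ~5×10^(5) CFU/ml, incubated 35±2 °C for 16 h. OD600 read every 20 min; growth inhibition calculated during logarithmic growth to derive the concentration inhibiting 90% of growth, in μM.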
In the case of `COc1ccc(-c2cnc(C(=O)Nc3ccc(C(=O)N[C@H]4C[C@@H](C(=O)N[C@H]5C[C@@H](N)C5)C4)c(Cl)c3)n2C)c(F)c1F` [Example B21, N-[4-[[3-[(3-aminocyclobutyl)carbamoyl]cyclobutyl]carbamoyl]-3-chloro-phenyl]-5-(2,3-difluoro-4-methoxy-phenyl)-1-methyl-imidazole-2-carboxamide;2,2,2-trifluoroacetic acid], the IC90 stood at 98 nM.
The result for `CNC(=O)c1ccc(NC(=O)c2ncc(-c3ccc(OC)cc3)n2C)cc1C` [Example D1, 5-(4-Methoxyphenyl)-1-methyl-N-[3-methyl-4-(methylcarbamoyl)phenyl]imidazole-2-carboxamide] reads 3200 nM.
As for `Cn1c(-c2ccc(OC(F)F)c(F)c2F)cnc1C(=O)Nc1ccc(C(=O)NCCCN)c(Cl)c1` [Example A19, N-[4-(3-Aminopropylcarbamoyl)-3-chloro-phenyl]-5-[4-(difluoromethoxy)-2,3-difluoro-phenyl]-1-methyl-imidazole-2-carboxamide], the figure is 1400 nM; as for `CCc1cc(NC(=O)c2ncc(-c3ccc(OC)c(F)c3F)n2C)ccc1C(=O)NCCOCCN` [Example A13, N-[4-[2-(2-aminoethoxy)ethylcarbamoyl]-3-ethyl-phenyl]-5-(2,3-difluoro-4-methoxy-phenyl)-1-methyl-imidazole-2-carboxamide;formic acid], 590 nM; as for `CCc1cc(NC(=O)c2ncc(-c3ccc(OCC(N)=O)c(F)c3F)n2C)ccc1C(=O)NCCOCCN` [Example A21, N-[4-[2-(2-aminoethoxy)ethylcarbamoyl]-3-ethyl-phenyl]-5-[4-(2-amino-2-oxo-ethoxy)-2,3-difluoro-phenyl]-1-methyl-imidazole-2-carboxamide;hydrochloride], 4700 nM.
The result for `Cc1cc(NC(=O)c2ncc(-c3ccc(OCC#N)c(F)c3F)n2C)ccc1C(=O)NCCCN1CCNCC1` [Example A12, 5-[4-(cyanomethoxy)-2,3-difluoro-phenyl]-1-methyl-N-[3-methyl-4-(3-piperazin-1-ylpropylcarbamoyl)phenyl]imidazole-2-carboxamide;2,2,2-trifluoroacetic acid] reads 340 nM; that for `Cn1c(-c2ccc(OCC#N)c(F)c2F)cnc1C(=O)Nc1ccc(C(=O)NCCNC(=O)[C@H]2CCNC[C@@H]2O)c(Cl)c1` [Example B35, (3R,4S)-N-[2-[[2-chloro-4-[[5-[4-(cyanomethoxy)-2,3-difluoro-phenyl]-1-methyl-imidazole-2-carbonyl]amino]benzoyl]amino]ethyl]-3-hydroxy-piperidine-4-carboxamide;formic acid], 1300 nM; that for `CCc1cc(NC(=O)c2ncc(-c3ccc(OC(F)F)cc3)n2C)ccc1C(=O)NCCOCCN` [Example A14, N-[4-[2-(2-aminoethoxy)ethylcarbamoyl]-3-ethyl-phenyl]-5-[4-(difluoromethoxy)phenyl]-1-methyl-imidazole-2-carboxamide;hydrochloride], 3000 nM.
On to `COc1ccc(-c2cnc(C(=O)Nc3ccc(C(=O)NCC4CCNCC4)c(Cl)c3)n2C)c(F)c1F` [Example A5, N-[3-chloro-4-(4-piperidylmethylcarbamoyl)phenyl]-5-(2,3-difluoro-4-methoxy-phenyl)-1-methyl-imidazole-2-carboxamide;formic acid], for which the IC90 came to 550 nM.
On to `CCc1cc(NC(=O)c2ncc(-c3ccc(OC(F)F)c(F)c3F)n2C)ccc1C(=O)NCCOCCN` [Example A17, N-[4-[2-(2-aminoethoxy)ethylcarbamoyl]-3-ethyl-phenyl]-5-[4-(difluoromethoxy)-2,3-difluoro-phenyl]-1-methyl-imidazole-2-carboxamide;hydrochloride], for which the IC90 stood at 400 nM.
The result for `COc1ccc(-c2cnc(C(=O)Nc3ccc(C(=O)NC4CCN(C(=O)C5CCNCC5)CC4)c(Cl)c3)n2C)c(F)c1F` [Example B5, N-[3-chloro-4-[[1-(piperidine-4-carbonyl)-4-piperidyl]carbamoyl]phenyl]-5-(2,3-difluoro-4-methoxy-phenyl)-1-methyl-imidazole-2-carboxamide;formic acid] reads 79 nM; that for `COc1ccc(-c2cnc(C(=O)Nc3ccc(C(=O)NCCCCCN(C)C)c(Cl)c3)n2C)c(F)c1F` [Example A26, N-[3-chloro-4-[5-(dimethylamino)pentylcarbamoyl]phenyl]-5-(2,3-difluoro-4-methoxy-phenyl)-1-methyl-imidazole-2-carboxamide], 200 nM.
Regarding `COc1ccc(-c2cnc(C(=O)Nc3ccc(C(=O)NC4CN(C(=O)CN)C4)c(Cl)c3)n2C)c(F)c1F` [Example B17, N-[4-[[1-(2-aminoacetyl)azetidin-3-yl]carbamoyl]-3-chloro-phenyl]-5-(2,3-difluoro-4-methoxy-phenyl)-1-methyl-imidazole-2-carboxamide;formic acid], the IC90 stood at 84 nM.
As for `CCc1cc(NC(=O)c2ncc(-c3ccc(OCC#N)c(F)c3F)n2C)ccc1C(=O)NCCOCCN` [Example A20, N-[4-[2-(2-aminoethoxy)ethylcarbamoyl]-3-ethyl-phenyl]-5-[4-(cyanomethoxy)-2,3-difluoro-phenyl]-1-methyl-imidazole-2-carboxamide;hydrochloride], the figure is 960 nM.
The result for `COc1ccc(-c2cnc(C(=O)Nc3ccc(C(=O)NCC4CN(C(=O)CN)C4)c(Cl)c3)n2C)c(F)c1F` [Example B18, N-[4-[[1-(2-aminoacetyl)azetidin-3-yl]methylcarbamoyl]-3-chloro-phenyl]-5-(2,3-difluoro-4-methoxy-phenyl)-1-methyl-imidazole-2-carboxamide;formic acid] reads 240 nM.
The result for `CCc1cc(NC(=O)c2ncc(-c3ccc(OC(F)F)c(F)c3F)n2C)ccc1C(=O)NCCCNC(=O)C1CCN(CC2CCNC2)CC1` (centres unmarked) [Example C2, N-[3-[[4-[[5-[4-(difluoromethoxy)-2,3-difluoro-phenyl]-1-methyl-imidazole-2-carbonyl]amino]-2-ethyl-benzoyl]amino]propyl]-1-(pyrrolidin-3-ylmethyl)piperidine-4-carboxamide;formic acid] reads 370 nM; that for `Cn1c(-c2ccc(OCC#N)c(F)c2F)cnc1C(=O)Nc1ccc(C(=O)NCCNC(=O)[C@@H]2CCNC[C@@H]2O)c(Cl)c1` [Example B32, (3R,4R)-N-[2-[[2-chloro-4-[[5-[4-(cyanomethoxy)-2,3-difluoro-phenyl]-1-methyl-imidazole-2-carbonyl]amino]benzoyl]amino]ethyl]-3-hydroxy-piperidine-4-carboxamide;formic acid], 1200 nM.
Turning to `Cn1c(-c2ccc(OCC#N)c(F)c2F)cnc1C(=O)Nc1ccc(C(=O)NCCNC(=O)[C@@H]2CCNC[C@H]2O)c(Cl)c1` [Example B34, (3S,4R)-N-[2-[[2-chloro-4-[[5-[4-(cyanomethoxy)-2,3-difluoro-phenyl]-1-methyl-imidazole-2-carbonyl]amino]benzoyl]amino]ethyl]-3-hydroxy-piperidine-4-carboxamide;formic acid], the IC90 amounted to 1700 nM.
The result for `CCc1cc(NC(=O)c2ncc(-c3c(F)cc(OC)cc3F)n2C)ccc1C(=O)NCCOCCN` [Example A18, N-[4-[2-(2-aminoethoxy)ethylcarbamoyl]-3-ethyl-phenyl]-5-(2,6-difluoro-4-methoxy-phenyl)-1-methyl-imidazole-2-carboxamide;hydrochloride] reads 1200 nM; that for `CCc1cc(NC(=O)c2ncc(-c3ccc(OC)c(F)c3F)n2C)ccc1C(=O)NCCCOCCN(C)C` [Example A30, 5-(2,3-difluoro-4-methoxy-phenyl)-N-[4-[3-[2-(dimethylamino)ethoxy]propylcarbamoyl]-3-ethyl-phenyl]-1-methyl-imidazole-2-carboxamide], 250 nM.
The result for `COc1ccc(-c2cnc(C(=O)Nc3ccc(C(=O)NCCCCCCN)c(Cl)c3)n2C)c(F)c1F` [Example A6, N-[4-(6-aminohexylcarbamoyl)-3-chloro-phenyl]-5-(2,3-difluoro-4-methoxy-phenyl)-1-methyl-imidazole-2-carboxamide] reads 150 nM.
As for `COc1ccc(-c2cnc(C(=O)Nc3ccc(C(=O)N[C@H]4C[C@@H](NC(=O)C5(O)CCNCC5)C4)c(Cl)c3)n2C)c(F)c1F` [Example B40, N-[3-[[2-chloro-4-[[5-(2,3-difluoro-4-methoxy-phenyl)-1-methyl-imidazole-2-carbonyl]amino]benzoyl]amino]cyclobutyl]-4-hydroxy-piperidine-4-carboxamide;formic acid], the IC90 amounted to 120 nM.
`COc1ccc(-c2cnc(C(=O)Nc3ccc(C(=O)NC4CCN(C(=O)[C@@H]5CCNC5)CC4)c(Cl)c3)n2C)c(F)c1F` [Example B6, N-[3-chloro-4-[[1-[(3R)-pyrrolidine-3-carbonyl]-4-piperidyl]carbamoyl]phenyl]-5-(2,3-difluoro-4-methoxy-phenyl)-1-methyl-imidazole-2-carboxamide;formic acid]: the IC90 came out at 100 nM.
As for `COc1ccc(-c2cnc(C(=O)Nc3ccc(C(=O)NC4CCNCC4)c(Cl)c3)n2C)c(F)c1F` [Example A4, N-[3-chloro-4-(4-piperidylcarbamoyl)phenyl]-5-(2,3-difluoro-4-methoxy-phenyl)-1-methyl-imidazole-2-carboxamide;formic acid], the figure is 440 nM.
As for `Cc1cc(NC(=O)c2ncc(-c3ccc(OCC#N)c(F)c3F)n2C)ccc1C(=O)NCCNC(=O)N[C@@H]1CNC[C@H]1O` [Example B30, 5-[4-(cyanomethoxy)-2,3-difluoro-phenyl]-N-[4-[2-[[(3R,4R)-4-hydroxypyrrolidin-3-yl]carbamoylamino]ethylcarbamoyl]-3-methyl-phenyl]-1-methyl-imidazole-2-carboxamide;formic acid], the figure is 650 nM; as for `CCc1cc(NC(=O)c2ncc(-c3ccc(OC)c(F)c3F)n2C)ccc1C(=O)N[C@H]1C[C@@H](C(=O)NCCN)C1` [Example B22, N-[4-[[3-(2-aminoethylcarbamoyl)cyclobutyl]carbamoyl]-3-ethyl-phenyl]-5-(2,3-difluoro-4-methoxy-phenyl)-1-methyl-imidazole-2-carboxamide;2,2,2-trifluoroacetic acid], 320 nM.
